# In ChEMBL document CHEMBL1142677, “Synthesis, antitumor evaluation, and apoptosis-inducing activity of hydroxylated (E)-stilbenes” (2005):
# Tests used:
# [1] = In vitro growth inhibitory concentration against human mammary carcinoma cell line MDA MB 468 using MTT assay; format: functional
# [2] = Percent of apoptosis in MDA MB 468 Cell line determined by Annexin-V-FITC/PI analysis at 10 uM; format: functional, Homo sapiens
# HCT-116 = assay: In vitro growth inhibitory concentration against human colon cancer cell line HCT 116; format: functional
# [3] = In vitro growth inhibitory concentration against human mammary carcinoma cell line MDA MB 468; format: functional
# [4] = Percent of apoptosis in MDA MB 468 Cell line determined by Annexin-V-FITC/PI analysis at 250 nM; format: functional, Homo sapiens
compound,measurement,setting,value
Oc1cccc(/C=C/c2ccccc2F)c1,GI50,[1],1400 nM
Oc1ccc(/C=C/c2cc(O)cc(O)c2)cc1 [RESVERATROL],Apoptosis,[2],4%
same,GI50,HCT-116,> 40000 nM
same,GI50,[3],> 40000 nM
Oc1ccccc1/C=C/c1ccc(F)c(F)c1,GI50,[1],1100 nM
CC[C@@]1(O)C(=O)OCc2c1cc1n(c2=O)Cc2cc3ccccc3nc2-1 [CAMPTOTHECIN],Apoptosis,[4],37%
COc1ccccc1/C=C/c1cccc(O)c1,Apoptosis,[2],20%
Oc1cccc(/C=C/c2ccc(F)c(F)c2)c1,GI50,[1],1600 nM
COc1cc(/C=C/c2cccc(O)c2)cc(OC)c1,GI50,[1],960 nM
